Each block holds one molecule with its values, some of them ahead of it.
Assays:
[1] = oral and iontophoretic patch administration, with oxadiazole muscarinic agonists; cited from earlier work
rats and monkeys = rats and monkeys (Schwarz 1999); cited from earlier work
Male Swiss mice [2] = assay: T-maze continuous alternation task (T-CAT) in mice; format: in vivo
Description: Evaluation of Cognition with Oxybutynin and Xanomeline in the T-maze Alternation Task in Mice The T-maze continuous alternation task (T-CAT) is useful as model for studying compounds with cognitive enhancing properties. The T-maze consists of 2 choice arms and 1 start arm mounted to a square center. Manual doors are provided to close specific arms during the force choice alternation task. Male Swiss mice (4-6 weeks old), N=10 per treatment group were used, and were pre-treated with: • Oxybutynin at the dose that blocked fecal pellet excretion in Study 2 of Example 1. […] Mice were randomly assigned to one of the different experimental treatment groups. Each animal was identified by its group name, cage number, series (day) of experiment, and number (1 to 10) written with permanent ink on the tail. The T-maze apparatus is made of gray Plexiglas with a main stem (55 cm long×10 cm wide×20 cm high) and two arms (30 cm long×10 cm wide×20 cm high) positioned at 90 degree angle relative to the main stem. A start box (15 cm long×10 cm wide) is separated from the main stem by a guillotine door. Horizontal doors are also provided to close specific arms during the force choice alternation task.
The experimental protocol consisted of one single session, which started with 1 “forced-choice” trial, followed by 14 “free-choice” trials. In the first “forced-choice” trial, animals were confined for 5 seconds to the start arm and then were released while either the left or the right goal arm was blocked by the horizontal door. Animals then negotiated the maze, eventually entering the open goal arm, and returned to the start position. […]
The apparatus was cleaned between each animal using 40% ethanol. […] The percentage of alternation over the 14 free-choice trials was determined for each mouse and was used as an index of working memory performance. […] The drug-induced improvement of memory was calculated by setting the respective response of the saline/vehicle as 100% and that of the test group as 0% reversion. […]

Male Swiss mice [3] = assay: Antagonism of xanomeline-induced diarrhea in mice by oxybutynin (fecal pellet count); format: in vivo; conditions: oxybutynin i.p. 0.3 to 30 mg/kg, 30 minutes before xanomeline 30 mg/kg
Protocol: Male Swiss mice (4-6 weeks old), N=10 per treatment group were used. Animals were pretreated with i.p. oxybutynin (a representative peripheral muscarinic receptor antagonist) or vehicle; 30 minutes later animals were treated with xanomeline at a dose of 30 mg/kg that caused diarrhea (as determined in Experiment 1). The dose of oxybutynin ordinarily ranged from 0.3 to 30 mg/kg. Mice were placed individually in cages without any bedding materials. During the experiment the number of fecal pellets was counted at different time-points as outlined below: • T-1h to T0: counting of the accumulated fecal pellets excreted, • T0: administration of oxybutinin. • T30 min: administration of vehicle or xanomeline. • T 30 min to T 2.5 h: counting of accumulated fecal pellets excreted. • T+2.5 h to T+4.5 h: counting of accumulated fecal pellets excreted. The total number of fecal pellets for each mouse was counted over time. An analysis of variance (ANOVA) was performed on the results. Fisher's Protected Least Significant Difference was used for pairwise comparisons. The p value ≦0.05 were considered significant. Grubbs' test (http (hypertext transfer protocol) www at graphpad.com/quickcalcs/Grubbs1.cfm) was used to detect outliers for each parameter in each experimental group.

[4] = cited from earlier work
Male Swiss mice [5] = assay: Dose-response to xanomeline in a mouse model of diarrhea (fecal pellet count); format: in vivo; conditions: xanomeline i.p. 0.3 to 30 mg/kg
Description: Male Swiss mice (4-6 weeks old), N=10 per treatment group were used, and treated intra-peritoneally (i.p.) with either vehicle (vehicle group) or increasing doses of xanomeline, a representative muscarinic agonist. Mice were randomly assigned to one of two experimental groups (vehicle; or increasing doses of xanomeline). Each animal was identified by its group name, cage number, series (day) of experiment, and number (1 to 10) written with permanent ink on the tail. Mice were placed individually in cages without any bedding materials. During the experiment the number of fecal pellets were counted at different time-points, starting one hour before the time of the administration of the test compound (TO), as outlined below: • T-1 h to T0: counting of the accumulated fecal pellets excreted. • T0: administration of the test compound, • T0 to T+2 h: counting of the accumulated fecal pellets excreted, • T+2 h to T+4 h: counting of the accumulated fecal pellets excreted, The total number of fecal pellets for each mouse was counted over time. An analysis of variance (ANOVA) was performed on the results. Fisher's Protected Least Significant Difference was used for pairwise comparisons; p values <0.05 were considered significant. Grubbs' test (http (hypertext transfer protocol) www at graphpad.com/quickcalcs/Grubbs1.cfm) was used to detect outliers for each parameter in each experimental group.

[6] = system: patients with Alzheimer disease; conditions: cited from earlier work

SMILES: NC(=O)C(c1ccccc1)(c1ccccc1)[C@@H]1CCN(CCc2ccc3c(c2)CCO3)C1 [darifenacin]
effectiveness relative to the other muscarinic antagonists [1]: less effective than the other muscarinic antagonists

SMILES: CO/N=C/C1=CCCN(C)C1 [milameline, (E)-N-methoxy-1-(1-methyl-1,2,5,6-tetrahydropyridin-3-yl)methanimine]
doses producing central cholinergic action relative to doses stimulating peripheral cholinergic receptors (rats and monkeys): doses slightly lower than those stimulating peripheral cholinergic receptors

SMILES: CCN(CC)CC#CCOC(=O)C(O)(c1ccccc1)C1CCCCC1 (stereo not shown) [oxybutynin]
effectiveness relative to the other muscarinic antagonists [1]: less effective than the other muscarinic antagonists
ability to perform the T-maze test after pretreatment (Male Swiss mice [2]; i.p. oxybutynin pretreatment 30 minutes before xanomeline): restored the animals' ability to perform the T-maze test
antagonism of xanomeline-induced diarrhea (Male Swiss mice [3]): dose-dependently antagonized the diarrhea induced by xanomeline

SMILES: O=C(O[C@H]1CN2CCC1CC2)N1CCc2ccccc2[C@@H]1c1ccccc1 [solifenacin succinate, (1S)-(3R)-1-azabicyclo [2.2.2] oct-3-yl 3,4-dihydro-1-phenyl-2(1H)-iso-quinolinecarboxylate]
half-life (in words) ([4]; in vivo): long half-life

SMILES: O=C(O[C@H]1C[C@H]2CC[C@@H](C1)[N+]21CCCC1)C(O)(c1ccccc1)c1ccccc1 [trospium chloride, Azoniaspiro [3β-benziloyloxy-(1α,5α)-nortropane-8,1′-pyrrolidine] chloride]
average plasma half-life ([4]; absorbed amount): about 18 hours

diarrhea (number of fecal pellets excreted) (Male Swiss mice [5]): dose-dependently causes diarrhea
SMILES: CCCCCCOc1nsnc1C1=CCCN(C)C1 [xanomeline, 3-(4-hexyloxy-1,2,5-thiadiazol-3-yl)-1-methyl-5,6-dihydro-2H-pyridine]
ability to perform the T-maze test at the higher dose (Male Swiss mice [2]; i.p. xanomeline, higher dose (dose that caused diarrhea)): animals were too sick to perform the test
performance in the T-maze (percentage of alternation, working memory) (Male Swiss mice [2]; i.p. xanomeline, mice): dose-dependent increase in performance in the T-maze
cognitive and behavioral symptoms compared to placebo ([6]; 6-month trial in Alzheimer disease patients (Bodick et al, 1997)): significantly improve cognitive and behavioral symptoms of Alzheimer disease
discontinuation rate due to side effects ([6]; Alzheimer's patient population (Mirza et al. 2003)): higher than 50%
side effects ([6]; bradycardia, gastro-intestinal distress, excessive salivation, sweating, Alzheimer disease patients): dose-dependent unacceptable side effects
